Results as given in patent US20260248949A1, “COMPOSITION AND METHOD” (Optimus Salvus Limited, priority 2022, published 2026).

Conditions: fasted subjects, 100 mg CBD equivalent by mouth, 1 hour post ingestion
Protocol: Fasted subjects were administered either a single cannabidiol capsule (100 mg cannabidiol) or two cannabidiol/cyclodextrin capsules (total 100 mg cannabidiol equivalent) by mouth. The capsules were taken with a standard glass of water. Capillary blood was drawn one hour after ingestion and the quantity of cannabidiol and cannabidiol metabolites in blood analysed by a certified laboratory.

C=C(C)[C@@H]1CCC(C)=C[C@H]1c1c(O)cc(CCCCC)cc1O [Plain CBD, cannabidiol]
Concentration of CBD in capillary blood: 11.52 ng/mL
Concentration of CBD-COOH in capillary blood: 13.14 ng/mL
Concentration of CBD-OH in capillary blood: 1.85 ng/mL
Concentration, Total (CBD and metabolites) in capillary blood: 26.77 ng/mL
